The target in data set [1] is human dopamine D2 receptor (Homo sapiens, UniProt P14416). As to conditions: cited from earlier work.
Data set [2] deals with schizophrenic patients. The conditions noted are these: multicentre, placebo-controlled study; cited from earlier work.

Where a name gives a salt, the structure may show the parent alone. A value given as a limit tells only on which side of the number the result lay.

Chain of human dopamine D2 receptor (P14416 whole entry): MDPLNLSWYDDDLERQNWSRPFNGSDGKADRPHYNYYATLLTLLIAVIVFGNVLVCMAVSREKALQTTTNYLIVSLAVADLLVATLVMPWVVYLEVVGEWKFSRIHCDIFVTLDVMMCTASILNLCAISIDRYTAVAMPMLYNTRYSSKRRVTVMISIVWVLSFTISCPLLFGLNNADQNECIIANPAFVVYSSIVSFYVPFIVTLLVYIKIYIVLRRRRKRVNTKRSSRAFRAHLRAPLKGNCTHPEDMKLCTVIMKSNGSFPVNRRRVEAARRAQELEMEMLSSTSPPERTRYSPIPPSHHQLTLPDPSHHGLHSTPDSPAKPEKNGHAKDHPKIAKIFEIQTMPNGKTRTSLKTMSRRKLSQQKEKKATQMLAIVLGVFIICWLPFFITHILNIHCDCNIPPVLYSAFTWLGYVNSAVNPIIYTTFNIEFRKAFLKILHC

`CC(Cc1c(-c2ccccc2)[nH]c2ccccc12)N1CCCCC1` (centres unmarked) (as salt: oxalate) returned a melting point of 240 °C.

In turn, `Cc1cccc2c(CCN3CCCCC3)c(-c3ccccc3)[nH]c12` (as salt: oxalate) showed a melting point of 159 to 161 °C.

For `Clc1cccc2c(CCN3CCCCC3)c(-c3ccccc3)[nH]c12` (as salt: oxalate), the melting point fell in the range of 178 to 179 °C. Same read-out and setting: next, `Fc1ccc2[nH]c(-c3ccccc3)c(CCN3CCCCC3)c2c1` (as salt: trifluoroacetic acid salt): 141 to 143 °C. `COc1cccc(C(O)C2CCN(CCc3ccc(F)cc3)CC2)c1OC` (stereo not drawn) [MDL-100,907, (+)-α-(2,3-dimethoxyphenyl)-1-[2-(4-fluorophenyl)ethyl]-4-piperidinemethanol]: the “activity at the human dopamine D2 receptor” value in data set [1] is on record as “essentially devoid of activity”. In data set [2], the “antipsychotic efficacy in clinical study” value was “demonstrated efficacy” and the “neurological adverse effects in clinical study” value is “no neurological adverse effects”. The compound `Brc1cccc2[nH]c(-c3ccccc3)c(CCN3CCCCC3)c12` (as salt: oxalate) showed a melting point greater than 230 °C. `Brc1ccc2c(CCN3CCCCC3)c(-c3ccccc3)[nH]c2c1` (as salt: oxalate) displayed a melting point greater than 230 °C. As to `Fc1ccc2c(CCN3CCCCC3)c(-c3ccccc3)[nH]c2c1` (as salt: oxalate), the melting point lay within 214 to 215 °C.

As for `Fc1cc(F)c2[nH]c(-c3ccccc3)c(CCN3CCCCC3)c2c1` (as salt: oxalate), the melting point was 185 to 187 °C. `Cc1ccc2[nH]c(-c3ccccc3)c(CCN3CCCCC3)c2c1` (as salt: oxalate): the melting point lay in the range of 163 to 164 °C. `COc1cccc2[nH]c(-c3ccccc3)c(CCN3CCCCC3)c12` yielded a melting point of 260 to 262 °C.

Turning to `Brc1cccc2c(CCN3CCCCC3)c(-c3ccccc3)[nH]c12` (as salt: oxalate), the melting point fell in the range of 206 to 207 °C. Compound `Brc1ccc2[nH]c(-c3ccccc3)c(CCN3CCCCC3)c2c1` (as salt: oxalate) had a melting point of 121 to 122 °C. In the case of `COc1cccc2c(CCN3CCCCC3)c(-c3ccccc3)[nH]c12` (as salt: oxalate), the melting point was 203 to 205 °C.

Consider `c1ccc(-c2ccc3c(CCN4CCCCC4)c(-c4ccccc4)[nH]c3c2)cc1` (as salt: oxalate), for which the melting point was in the range of 129 to 131 °C.

The melting point is the temperature, or range, at which the solid turns liquid.
